Results reported in paper PMC6304418, “A Novel Compound Targeting Protease Receptor 1 Activators for the Treatment of Glioblastoma” (Frontiers in Neurology, 2018).
Entries after “also recorded” stand apart in the source; their conditions may differ. Where a SMILES comes first, the peptide text is derived from it. The star is where a group is joined. Tos = Cc1ccc(S(=O)(=O)*)cc1; CH2Cl = ClC*

Tests used:
U87 glioma cells = experiment: U87 glioma cell proliferation (XTT); format: cell-based, human; conditions: 72 h
Procedure: (§1) CNS-1, C6, and U87 rat and human glioma cells were grown in Dulbecco's modified Eagle's medium (DMEM; Bet Haemek, Biological Industries, Israel) supplemented with 10% fetal bovine serum (Bet Haemek, Biological Industries, Israel) and 1% penicillin and streptomycin in a 5% CO2-humidified atmosphere.
(§2) Cell proliferation was evaluated using a 2.3-Bis-(2-methoxy-4-nitro-5-sulfophenyl)-2H-tetrazolium-5-carboxyanilide salt (XTT)-based cell proliferation assay kit (Bet Haemek, Biological Industries, Israel). U87 cells were seeded in 96-well plates (5 × 10^3 cells/well) and incubated for 24 h. The medium was then removed, the tested molecules (10^−13-10^−4 M final concentration) were added in FCS-free medium and introduced to the cells for 72 h. After choosing SIXAC as the leading molecule, it was tested in a similar way in CNS-1 cells (SIXAC 1 μM final concentration). XTT solution (50 μl) was added to each well and incubated for 3 h at 37°C. The optical density (OD) of each well was recorded at 450 and 630 nm in a microplate reader (Infinite M200, Tecan, Durham, NC, USA). Cell viability was expressed as the percentage (ODtest–ODblank)/(ODcontrol–ODblank), where ODtest is the optical density of cells exposed to SIXAC treatment, ODcontrol is the optical density of the control sample, and ODblank is the optical density of wells without glioma cells.

CNS-1 glioma cells = experiment: CNS-1 glioma cell proliferation (XTT); format: cell-based, rat; conditions: SIXAC 1 μM, 72 h, FCS-free medium, p < 0.03
Procedure: as §1, §2

[1] = tested on: thrombin mediated PAR1 activation (pERK/ERK) in CNS-1 cells; experiment: ERK activation (pERK/ERK, Western blot) in CNS-1 cells; format: cell-based, rat; conditions: thrombin 1 U/ml + SIXAC 100 nM, 10 min; n = 3; thrombin alone 2.09 ± 0.28, p < 0.03
Procedure: Cells were seeded (1 × 10^6 cells/75 cm^2 flask) and incubated for 24 h. Then the medium was replaced by FCS-free medium for another 24 h. The cells were treated for 10 min with thrombin (1 U/ml), SIXAC (100 nM), a combination of thrombin and SIXAC or a FCS-free medium which was used as a control (n = 3 for each treatment). The cells were washed and lysed in RIPA buffer (containing in mM: 50 TRIS HCl pH 8, 150 NaCl, 1% NP-40, 0.5% sodium deoxycholate, and 0.1% SDS), a protease inhibitor cocktail (Merck Millipore 539134, 1:100), 0.1 mM sodium orthovanadate and 2 mM PMSF. The cells were scraped, collected and centrifuged (16,000g × 20 min) at 4°C. The supernatants were collected, and protein concentration was determined by means of a bicinchoninic acid (BCA) assay. Each sample (20 μg) was separated by SDS-polyacrylamide gel electrophoresis. The proteins were transferred onto nitrocellulose membranes. Membranes were incubated with mouse anti-phosphorylated Extracellular signal-Regulated Kinase (pERK) antibody (1:10,000, M8159, Sigma), for 1.5 h at room temperature (RT) and washed with Tris-buffered saline and 0.1% Tween 20 (TBST). Membranes were then incubated at RT with horseradish peroxidase-conjugated goat anti-mouse antibody (1:10,000, Jackson Immunoresearch Laboratories). […] Protein bands were detected by a peroxidase-based enhanced chemiluminescence (ECL) method. […]

glioma cells (CNS-1) = experiment: Wound healing (wound-closure) assay; format: cell-based, rat; conditions: SIXAC 1 μM, 4 h, FCS-free medium; control 10.14 ± 0.67%; p = 0.02
Procedure: The effect of SIXAC on the coordinated movement of the glioma cells was evaluated using a wound healing assay. The cells were seeded in 24-well plates at a density of 5 × 10^4cells/well. Cells were cultures in FCS-free medium for 24 h. A wound was established by scraping using 10 μl pipette tip. Cells were washed twice with warm PBS and fresh FCS-free medium containing 1 μM SIXAC was added. Image acquisition of wound gap closure (%) was carried out following 4 h of incubation using a Nikon Eclipse microscope. Images were analyzed using Fiji software ([37]).

Cc1ccc(S(=O)(=O)N[C@@H](C)C(=O)N[C@H](C(=O)N[C@@H](CC(C)C)C(=O)N[C@@H](CC(=O)O)C(=O)N2CCC[C@H]2C(=O)N[C@@H](CCCNC(=N)N)C(=O)CCl)[C@@H](C)O)cc1 [SIXAC] (Tos-ATLDPR-CH2Cl)
U87 proliferation rate ("inhibit proliferation at a rate of") (U87 glioma cells; 10^−5M, FCS-free medium, mean ± SEM, 3AACK vs. 6AACK p < 0.035): 0.2 ± 0.34
U87 proliferation inhibition, ranking among the molecules (U87 glioma cells; 10^−13-10^−4 M, Figure 1D): found to inhibit the U87 proliferation rate the most
CNS-1 cell proliferation rate (CNS-1 glioma cells): significantly decrease proliferation rate (p < 0.03); also recorded: significantly decrease the CNS-1 cell proliferation rate
pERK/ERK ratio, thrombin with SIXAC [1]: 0.99 ± 0.21
wound-closure percentage (glioma cells (CNS-1)): 7.27 ± 0.68%
